From patent publication US20260159486A1, “BENZO[H]QUINAZOLINE-4-AMINE DERIVATIVES FOR THE TREATMENT OF CANCER” (Redona Therapeutics, Inc., priority 2021, published 2026) come the findings set out here.

For data set [1], the system named is phospho-SRSF6 in MDA-MB-468 cells. Kind of data set: Inhibition of phospho-SRSF6 levels in MDA-MB-468 cells (Western blot). The class given is cell-based. Conditions: Homo sapiens, 2 hours, compared to DMSO control. Here is the method: FIG. 1: FIG. 1 provides a representative Western blot showing reduction of phosphorylated-SRSF6 (P—SRSF6) in MDA-MB 468 cells by compounds of the invention. GAPDH was probed for by Western blotting to control for equal protein loading and for normalization of samples. The numbers below the blots show percent inhibition of the P—SRSF6 signal at 100 nM (A) or 10 nM (B) compared to DMSO control.
Assessment of Inhibition of Phospho-SRSF6 Levels in MDA-MB-468 Cells
MDA-MB-468 cells (ATCC, HTB-132) were cultured in DMEM (BioConcept cat. no. 1-26F03) supplemented with 10% FBS (Sigma cat. no. F9665), […] (Sigma cat. no. S8636), 1% Penicillin-Streptomycin (BioConcept cat. no. 4-01FOO-H). When cells reached a density of 70% o in 6-well plates (TPP cat. no. 92006), they were treated either with the test compound vehicle DMSO, or with experimental compounds at a final concentration of either 10 or 100 nM for 2 hours. Thereafter, the culture medium was removed and cells were collected by scraping in Lysis Buffer (20 mM Tris HCl pH7.5, 150 mM NaCl, 1 mM EGTA, 1 mM EDTA, 1% o Triton and 1% o NP-40) containing protease and phosphatase inhibitors (Halt™ Protease&Phosphatase inhibitor cocktail 100× ThermioScientific cat. no. 1861281) and 1 mM PMSF (Fluka cat. no. 93482). Cleared lysates were stored in Eppendorfftubes at −80° C. until use, and protein concentration in lysates was determined using Pierce 660 nm Protein Assay Reagent (ThermioScientific cat. no. 22660). 20 μg proteins were diluted in 4× Laemmli buffer (Biorad cat. no. 161-0747) containing 10% beta-mercaptoethanol, separated by SDS-PAGE using 10% gels, and then transferred to PVDF membranes (Trans Blot Turbo Transfer Pack BioRad cat. no. 1704156) by Trans-Blot® Turbo™ System semidry blotting methodology (BioRad). Primary antibodies were incubated in TBS-0.1% Tween-20 buffer containing 3% BSA Bovine Albumin Fr.V (Millipore cat. no. 81-053-3) overnight at 4° C. The following primary antibodies were used: Mouse anti-phosphoepitope SR proteins clone 1H4 (Millipore cat. no. MABE50) diluted 1:5000, and rabbit anti-GAPDH clone 14C10 (Cell Signaling cat. no. 2118S) to control for equal protein loading, diluted 1:2000. HRP-conjugated secondary antibodies were incubated one hour at room temperature diluted 1:5000 in TBS-0.1% Tween-20 buffer containing […] nonfat-dried bovine milk (Sigma cat. no. M7409). The following secondary antibodies were used: Goat anti-mouse-HRP (Jackson cat. no. 115-035-146) and goat anti-rabbit-HRP (Jackson cat. no. 111-035-144). Membranes were incubated with ECL Prime Western Blot Detection Reagent (Amersham cat. no. RPN2236) to detect specific signals using Fusion SOLO S device (Vilber Lourmat). Pixel intensity of the phopsho-SRSF6 (MW 55 kDa in reference to markers) and GAPDH (MW 37 kDa) signals in the Western blots were determined using Evolution-Capt image analysis software (v17.01, Vilber Lourmat). DMSO control was used to set the phospho-SRSF6 signal at baseline, phospho-SRSF6 signals for each sample were normalized by the respective GAPDH signals and percent intensity of P—SRSF6 signal at 10 and 100 nM compound compared to DMSO control was calculated (see FIG. 1).
(In general: Immunoblotting shows a protein as a band on a membrane.)

The nature of data set [2]: Body weight changes in SW480 xenograft study. The class given is in vivo, NOD/SCID mice. Conditions: day-17; oral BID*BIW, 45 mg/kg days 1-10, 50 mg/kg days 11-22. Here is the method:
NOD/SCID mice of circa 23 g of weight were inoculated with 1×10^7 SW480 human colorectal cancer cells in 50% Matrigel™ subcutaneously in a flank. A pair match was performed when tumors reached an average volume of 100-150 mm^3 to distribute animals into treatment group and vehicle control (n=8/group). Tumor volumes (expressed in mm^3) were measured twice weekly using a caliper on days 1, 4, 8, 11, 15, 18, 22 and 23 of the treatment period. (A) The average TVol (±standard error of mean (SEM)) of each treatment group are shown. […] (B) Changes in BW in percentage (expressed in g, ±SEM) on days 1, 4, 8, 11, 15, 18, 22 and 23 of the treatment period. (C) Changes in vehicle- and Example 13-treated TVol expressed in mm^3. TVol ratio of Example 13-treated vs vehicle control (T/C) is indicated.
Female 8-9 weeks of age NOD/SCID mice of about 23 g of weight were used for the study (Jiangsu GemPharmatech Co., Ltd). Mice were inoculated subcutaneously in the flank region with 1×10^7 SW480 cells in PBS mixed with Matrigel™ (1:1) in a final injection volume of 0.2 mL/mouse. Once tumors reached an average size of 100-150 mm^3, a pair match was carried out to distribute mice to the different treatment groups. […]
Tumor volumes (expressed in mm^3) were measured in two dimensions using a caliper on days 1, 4, 8, 11, 15, 18, 22 and 23 of the treatment period. […]

Structures are written as SMILES. Bounds are passed on as bounds.

For the molecule `COCCN(C)c1c(O[C@H]2CC[C@H](N)CC2)ccc2c1CC(C)(C)c1c(N)ncnc1-2` [Example 13, 8-(trans-4-aminocyclohexoxy)-N7-(2-methoxyethyl)-N7,5,5-trimethyl-6H-benzo[h]quinazoline-4,7-diamine], in data set [1] (10 nM, read-out: >50% p-SRSF6 reduction at 10 nM), the inhibition at 0.01 µM was under 50%. The inhibition at 0.1 µM in data set [1] (100 nM, read-out: >50% p-SRSF6 reduction at 100 nM) was over 50%. In data set [2], the “maximal body weight loss” value is recorded as 5%.
